From ChEMBL document CHEMBL5620378, “Structure-based discovery of novel cruzain inhibitors with distinct trypanocidal activity profiles” (Eur J Med Chem, 2023)
Each block holds one compound with its values, some of them ahead of it. Activity calls are given as the source filed them. The rule behind the calls is not given here.

Tests used:
[1] = molecular target: Cruzipain (Trypanosoma cruzi) (UniProt P25779); experiment: Inhibition of C-terminal truncated Trypanosoma cruzi Tulahuen Cruzain using Z-FR-AMC as substrate at 100 uM measured for 5 mins by fluorescence based analysis
Chain of Cruzipain (Trypanosoma cruzi) (P25779 123-467 limits assumed): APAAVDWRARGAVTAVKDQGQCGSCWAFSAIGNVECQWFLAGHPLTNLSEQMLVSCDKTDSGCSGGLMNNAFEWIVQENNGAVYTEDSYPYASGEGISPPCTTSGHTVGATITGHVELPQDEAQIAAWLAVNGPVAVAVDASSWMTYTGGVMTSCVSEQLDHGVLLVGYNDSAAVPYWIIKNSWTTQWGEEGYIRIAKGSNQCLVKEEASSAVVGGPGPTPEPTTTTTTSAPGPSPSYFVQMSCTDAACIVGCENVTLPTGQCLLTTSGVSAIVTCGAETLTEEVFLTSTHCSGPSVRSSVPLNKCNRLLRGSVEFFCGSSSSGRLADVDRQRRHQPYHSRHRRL

[2] = molecular target: Cruzipain (Trypanosoma cruzi) (UniProt P25779); experiment: Inhibition of C-terminal truncated Trypanosoma cruzi Tulahuen Cruzain using Z-FR-AMC as substrate at 100 uM preincubated with enzyme for 10 mins and measured for 5 mins by fluorescence based analysis; conditions: time 15.0 min
Cruzipain [3] = molecular target: T1, Cruzipain (Trypanosoma cruzi, UniProt P25779); experiment: Inhibition of C-terminal truncated Trypanosoma cruzi Tulahuen Cruzain using Z-FR-AMC as substrate measured for 5 mins by fluorescence based analysis
T1 sequence (P25779 whole entry, the tested form may be a part): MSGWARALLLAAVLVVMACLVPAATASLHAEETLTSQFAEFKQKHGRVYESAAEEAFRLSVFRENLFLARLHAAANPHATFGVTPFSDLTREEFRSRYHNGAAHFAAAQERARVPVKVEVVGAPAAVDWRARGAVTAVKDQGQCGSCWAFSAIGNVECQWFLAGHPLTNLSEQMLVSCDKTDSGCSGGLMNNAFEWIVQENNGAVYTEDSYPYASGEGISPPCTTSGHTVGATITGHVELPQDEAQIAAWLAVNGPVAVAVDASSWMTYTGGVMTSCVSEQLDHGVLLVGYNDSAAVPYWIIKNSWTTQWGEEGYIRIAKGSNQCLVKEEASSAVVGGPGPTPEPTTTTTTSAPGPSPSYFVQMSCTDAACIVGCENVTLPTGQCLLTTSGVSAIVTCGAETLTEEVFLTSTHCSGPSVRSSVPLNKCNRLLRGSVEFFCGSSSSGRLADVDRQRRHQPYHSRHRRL

[4] = molecular target: Cruzipain (Trypanosoma cruzi) (UniProt P25779); experiment: Competitive inhibition of C-terminal truncated Trypanosoma cruzi Tulahuen Cruzain assessed as increase in Km(app) using Z-FR-AMC as substrate by Michaelis-menten based analysis
Cruzipain [5] = molecular target: T1, Cruzipain; experiment: Competitive inhibition of C-terminal truncated Trypanosoma cruzi Tulahuen Cruzain using Z-FR-AMC as substrate by Michaelis-menten based analysis
[6] = molecular target: Cruzipain (Trypanosoma cruzi) (UniProt P25779); experiment: Competitive inhibition of C-terminal truncated Trypanosoma cruzi Tulahuen Cruzain assessed as constant Vmax using Z-FR-AMC as substrate by Lineweaver-Burk plot analysis
[7] = molecular target: Cruzipain (Trypanosoma cruzi) (UniProt P25779); experiment: Ratio of IC50 for inhibition of C-terminal truncated Trypanosoma cruzi Tulahuen Cruzain in presence of different concentrations of Triton to IC50 for inhibition of C-terminal truncated Trypanosoma cruzi Tulahuen Cruzain
[8] = molecular target: Cruzipain (Trypanosoma cruzi) (UniProt P25779); experiment: Ratio of IC50 for inhibition of C-terminal truncated Trypanosoma cruzi Tulahuen Cruzain in presence of 0% Triton and BSA to IC50 for inhibition of C-terminal truncated Trypanosoma cruzi Tulahuen Cruzain
Cathepsin L = Cathepsin L (Homo sapiens, UniProt P07711); experiment: Inhibition of human recombinant Cathepsin L (18 to 333 residues) assessed as residual activity using Z-FR-AMC as substrate at 100 uM measured for 5 mins by fluorescence based analysis; conditions: recombinant human Cathepsin L (residues 18 to 333), probe Z-FR-AMC, read-out: Activity
Chain of Cathepsin L (P07711 whole entry, the tested form may be a part): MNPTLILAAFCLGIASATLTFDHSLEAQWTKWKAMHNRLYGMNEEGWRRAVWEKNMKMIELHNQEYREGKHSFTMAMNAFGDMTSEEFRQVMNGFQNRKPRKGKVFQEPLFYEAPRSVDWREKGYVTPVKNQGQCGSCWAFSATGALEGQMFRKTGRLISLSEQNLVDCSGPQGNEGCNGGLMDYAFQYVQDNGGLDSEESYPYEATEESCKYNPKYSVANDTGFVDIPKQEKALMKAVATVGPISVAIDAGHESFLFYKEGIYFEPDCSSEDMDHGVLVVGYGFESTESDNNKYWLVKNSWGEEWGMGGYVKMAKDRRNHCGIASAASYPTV

Trypanosoma cruzi [9] = experiment: Trypanocidal activity against Trypanosoma cruzi Y infected in C57BL/6 mouse Peritoneal macrophages assessed as reduction in trypomastigotes release at 6.25 uM measured on day 5 post-infection; assay type: functional; conditions: Peritoneal macrophage, 120 h, time 5 day
Trypanosoma cruzi [10] = experiment: Trypanocidal activity against Trypanosoma cruzi Y infected in C57BL/6 mouse Peritoneal macrophages assessed as reduction in trypomastigotes release at 100 uM measured on day 5 post-infection; assay type: functional; conditions: Peritoneal macrophage, 120 h, time 5 day
Peritoneal macrophage [11] = experiment: Cytotoxicity against C57BL/6 mouse Peritoneal macrophages assessed as cell damage at 0.19 to 400 uM measured after 24 hrs by LDH assay; assay type: toxicity, cell-based; conditions: dose 0.19-400 µM
Peritoneal macrophage [12] = experiment: Cytotoxicity against C57BL/6 mouse Peritoneal macrophages infected with Trypanosoma cruzi Y assessed as cell damage at 0.19 to 400 uM measured after 24 hrs by LDH assay; assay type: toxicity, cell-based; conditions: dose 0.19-400 µM
Peritoneal macrophage [13] = experiment: Effect on NO release in C57BL/6 mouse Peritoneal macrophages infected with Trypanosoma cruzi Y measured at 11 days post-infection by Griess reagent based assay; assay type: functional, cell-based; conditions: time 11.0 day
Trypanosoma cruzi [14] = experiment: Trypanocidal activity against trypomastigote form of Trypanosoma cruzi Y assessed as reduction in parasite load at 6.25 uM incubated for 1 hr; assay type: functional
Trypanosoma cruzi [15] = experiment: Trypanocidal activity against epimastigotes form of Trypanosoma cruzi Y assessed as parasite viability by MTT assay; assay type: functional, organism-based
Trypanosoma cruzi [16] = experiment: Trypanocidal activity against epimastigotes form of Trypanosoma cruzi Y assessed as decrease in parasite growth at 200 uM pretreated for 1 hr followed by drug wash-out and measured after 72 hrs by optical microscopic analysis; assay type: functional
Trypanosoma cruzi [17] = experiment: Trypanocidal activity against epimastigotes form of Trypanosoma cruzi Y assessed as decrease in parasite growth at 25 uM measured after 72 hrs by optical microscopic analysis; assay type: functional
Trypanosoma cruzi [18] = experiment: Trypanocidal activity against trypomastigote form of Trypanosoma cruzi Y infected in C57BL/6 mouse Peritoneal macrophages assessed as reduction in intracellular parasite infection at 0.19 to 400 uM preincubated with parasite for 1 hr followed by infection and measured at 3 to 11 days post-infection; assay type: functional, organism-based; conditions: Peritoneal macrophage, dose 0.19-400 µM, time 3-11 day
Trypanosoma cruzi [19] = experiment: Trypanocidal activity against epimastigotes form of Trypanosoma cruzi Y assessed as decrease in parasite growth at 400 uM measured after 72 hrs by optical microscopic analysis; assay type: functional

SMILES: Cc1ccc(CNC(=O)C2Cc3ccc(F)cc3C(=O)O2)o1 (configuration not stated)
inhibition [1]: 13%

SMILES: O=C(NCc1ccccn1)C1Cc2ccccc2CN1 (configuration not stated)
inhibition [1]: 7%

SMILES: O=C(NCc1ccco1)[C@@H]1Cc2ccccc2CO1
inhibition [1]: 25%

Further lines, with some results ahead:

inhibition [1]: 8%
SMILES: Cc1ccc(CNC(=O)[C@@H]2Cc3ccccc3CN2)o1

inhibition [1]: 4%
SMILES: Cc1ccc(CNC(=O)[C@H]2Cc3ccccc3CN2)o1

inhibition [2]: 100%
IC50 (Cruzipain [3]): 3 µM
inhibition [4]: Active
Ki (Cruzipain [5]): 4.6 µM
inhibition [6]: Active
inhibition [1]: 100%
Ratio IC50 [7]: 3
Ratio IC50 [8]: 7
SMILES: O=C(NCc1ccco1)C1Cc2ccccc2CN1 (racemic)
activity at 5 min, 100 µM (Cathepsin L): 51%
inhibition at 6.25 µM (Trypanosoma cruzi [9]): 18%
inhibition at 100 µM (Trypanosoma cruzi [10]): 25%
Activity (Peritoneal macrophage [11]): Non-Toxic
Activity (Peritoneal macrophage [12]): Non-Toxic
Activity (Peritoneal macrophage [13]): inactive
inhibition at 6.25 µM (Trypanosoma cruzi [14]): 13%
Activity (Trypanosoma cruzi [15]): inactive
inhibition at 200 µM (Trypanosoma cruzi [16]): 20%
inhibition at 25 µM (Trypanosoma cruzi [17]): 43%

IC50 (Cruzipain [3]): 26 µM
inhibition [4]: Active
Ki (Cruzipain [5]): 27 µM
inhibition [6]: Active
inhibition [1]: 100%
Ratio IC50 [7]: 6
Ratio IC50 [8]: 10
SMILES: O=C(NCc1ccco1)C1Cc2c(F)cccc2CN1 (racemic)
activity at 5 min, 100 µM (Cathepsin L): 65%
inhibition at 6.25 µM (Trypanosoma cruzi [9]): 51%
inhibition at 100 µM (Trypanosoma cruzi [10]): 74%
Activity (Peritoneal macrophage [11]): Non-Toxic
Activity (Peritoneal macrophage [12]): Non-Toxic
Activity (Peritoneal macrophage [13]): inactive
inhibition at 6.25 µM (Trypanosoma cruzi [14]): 39%
Activity (Trypanosoma cruzi [18]): Active
Activity (Trypanosoma cruzi [15]): inactive
inhibition at 200 µM (Trypanosoma cruzi [16]): 12%
inhibition at 25 µM (Trypanosoma cruzi [17]): 6%
inhibition at 400 µM (Trypanosoma cruzi [19]): 23%
